US20110091945A1, “METHODS OF INCREASING BIOMASS PRODUCTIVITY, LIPID INDUCTION, AND CONTROLLING METABOLITES IN ALGAE FOR PRODUCTION OF BIOFUELS USING BIOCHEMICAL STIMULANTS” (priority 2009, published 2011)
“And” between values parts separate entries of the source, which are not always exact repeats. Equal values may be shown once. Read-outs that look alike come from different tables or passages of the source.

Legend:
[1] = tested on: Chlorella sorokiniana; assay: Malathion twelve day growth study: biomass and growth rates; format: cell-based, Chlorella sorokiniana (UTEX 2805)
Experimental: (§1) • Analysis of growth parameters: Chlorophyll a was estimated following the method of Porra et al., (1989) Biochem. Biophys. Acta 975, 384-394. Biomass estimations were performed by filtering the cultures through pre-dried and weighed Whatman GF/C glass fiber filters (4.7 cm diameter; 1.2 μm pore size). After washing with 0.65 M ammonium formate, filters were then dried at 60° C. overnight and cooled in a desiccant pouch before re-weighing. Specific growth rates, divisions per day, and generation times were estimated based upon biomass data for days 6 to 9 and days 9 to 12 using the following equations:
Specific growth rate (μ, d^−1)=ln(N2/N1)/(t2−t1)
Divisions per day (Div.day^−1)=μ/ln2
Generation time (d)=1/Div.day^−1
Where N1 and N2=biomass at time 1 (t1) and time 2 (t2), respectively.
(§2) • Test strain: Chlorella sorokiniana (UTEX 2805) was obtained from UTEX Culture Collections and maintained in BG11 medium (Stanier et al., (1971) Bacteria Rev. 35: 171-205, incorporated herein in its entirety). The pH of culture medium was adjusted to 7.5±0.2 before inoculation and the alga was maintained in a temperature controlled growth chamber at 25±1° C. and 100±10 μmol m^−2 s^−1 light intensity with 12/12 h L/D cycle provided by cool white fluorescent (6500 K) T-8 bulbs. • Pesticide: A twelve day time-scale growth study was conducted to evaluate the effect of pesticide toxicity on algal growth and metabolism. The pesticide malathion (Spectracide, 50% v/v) was used and added to fresh BG11 medium to obtain final concentrations of 70, 140, 280 and 560 mg of malathion L^−1 for the treatments. […] After sterilization, C. sorokiniana was added as inoculum to obtain an initial biomass concentration of 0.075 g L^−1 in all the treatments in triplicates. The cultures were incubated in the growth chamber as explained above. For each sampling period, three randomly chosen flasks of each treatment were removed and then refrigerated at 4° C. until further analysis.

[2] = tested on: Chlorella sorokiniana; assay: Malathion twelve day growth study: chlorophyll a and chl a/b ratio; format: cell-based, Chlorella sorokiniana (UTEX 2805)
Experimental: as §1, §2

[3] = tested on: Chlorella sorokiniana; assay: Malathion growth study: neutral lipid content; format: cell-based, Chlorella sorokiniana (UTEX 2805); conditions: for increase in lipid production over the control: day 6
Experimental: • Biomass Composition: Neutral lipids were estimated using an Ankom XT10 automated extractor (Chinnasamy et al., (2010) Bioresource Technol. 101: 3097-3105). Lipid content was measured gravimetrically using hexane as solvent. The same filters used for the biomass measurements (from 25 mL of culture) were used for the lipid estimation as they provided the initial weight of biomass (W1). The filters were then placed into Ankom XT4 extraction bags, sealed with the impulse sealer and then autoclaved at 121° C. for 15 min. After drying, the extraction bags were placed in a resealable plastic bag with desiccant material while each individual bag was removed and carefully weighed (W2). Extraction bags were then placed into the Ankom extractor and extraction was performed for 2 h at 105° C. with hexane as solvent. Bags were then transferred to a forced-air oven and dried at 60° C. overnight, then cooled in a dessicator and weighed (W3). The following equation was used to calculate the lipid content of algal samples:
as §2

[4] = tested on: Chlorella pyrenoidosa; conditions: 100 mg of malathion L^−1; cited from earlier work
[5] = tested on: Chlorogloea fritschii; conditions: cited from earlier work
[6] = tested on: Stigeoclonium, Tribonema, and Vaucheria; conditions: 1 μg L^−1; cited from earlier work
[7] = tested on: Anabaena; conditions: cited from earlier work; for inhibition: 500 mg malathion L^−1
[8] = tested on: algae; conditions: applied alone at half solubility in water (75 mg L^−1); cited from earlier work
[9] = T1, 70 mg malathion L^−1, day 6 to 9
[10] = T1, 70 mg malathion L^−1, day 9 to 12
[11] = T2, 140 mg malathion L^−1, day 6 to 9
[12] = T2, 140 mg malathion L^−1, day 9 to 12

Compound: CCOC(=O)CC(SP(=S)(OC)OC)C(=O)OCC (stereo not shown) [malathion, 2-(dimethoxyphosphinothioylthio)butanedioic acid diethyl ester]
- malathion concentration the alga can withstand / tolerated [1]: up to 140 mg L^−1
- time within which the alga could metabolize the pesticide and overcome the stress ([1]; 70 mg malathion L^−1): ≤ 6 days
- inhibition in biomass ([1]; 70 mg malathion L^−1, day 3): 25%
- inhibition in biomass ([1]; 70 mg malathion L^−1, day 6): 37%
- inhibition in biomass ([1]; 70 mg malathion L^−1, day 9): 35%
- inhibition in biomass ([1]; 70 mg malathion L^−1, day 12): 18%
- time within which the alga could metabolize the pesticide and overcome the stress ([1]; 140 mg malathion L^−1): ≤ 9 days
- inhibition of biomass ([1]; 140 mg malathion L^−1, day 3): 35%
- inhibition of biomass ([1]; 140 mg malathion L^−1, day 6): 60%
- inhibition of biomass ([1]; 140 mg malathion L^−1, day 9): 68%
- inhibition of biomass ([1]; 140 mg malathion L^−1, day 12): 49%
- effect on growth of the alga, in words ([1]; 270 mg malathion L^−1): lethal
- effect on growth of the alga, in words ([1]; 280 mg malathion L^−1 (T3)): lethal
- inhibition of biomass ([1]; 280 mg malathion L^−1, day 3): 48%
- inhibition of biomass ([1]; 280 mg malathion L^−1, day 6): 78%
- inhibition of biomass ([1]; 280 mg malathion L^−1, day 9): 89%
- inhibition of biomass ([1]; 280 mg malathion L^−1, day 12): 100%
- effect on growth of the alga, in words ([1]; 540 mg malathion L^−1): lethal
- effect on growth of the alga, in words ([1]; 560 mg malathion L^−1 (T4)): lethal effects
- Divisions per day [1, 9]: 0.23
- Generation time [1, 9]: 4.4 days
- Increase in biomass production [1, 9]: 1.61 times
- Specific growth rate (μ) [1, 9]: 0.16 day⁻¹
- Δ Biomass [1, 9]: 0.103 g/L
- Divisions per day [1, 10]: 0.27
- Generation time [1, 10]: 3.7 days
- Increase in biomass production [1, 10]: 1.8 times and 1.76 times
- Specific growth rate (μ) [1, 10]: 0.19 day⁻¹
- Δ Biomass [1, 10]: 0.206 g/L
- Divisions per day [1, 11]: 0.12
- Generation time [1, 11]: 8.7 days
- Increase in biomass production [1, 11]: 1.27 times
- Specific growth rate (μ) [1, 11]: 0.08 day⁻¹
- Δ Biomass [1, 11]: 0.029 g/L
- Divisions per day [1, 12]: 0.38
- Generation time [1, 12]: 2.6 days
- Increase in biomass production [1, 12]: 2.2 times and 2.20 times
- Specific growth rate (μ) [1, 12]: 0.26 day⁻¹
- Δ Biomass [1, 12]: 0.163 g/L
- ratio of chl a to chl b ([2]; 70 mg malathion L^−1, day 0): approximately 0.85
- inhibition in chl a ([2]; 70 mg malathion L^−1, day 3): 45%
- inhibition in chl a ([2]; 70 mg malathion L^−1, day 6): 49%
- inhibition in chl a ([2]; 70 mg malathion L^−1, day 9): 51%
- inhibition in chl a ([2]; 70 mg malathion L^−1, day 12): 26%
- ratio of chl a to chl b ([2]; 70 mg malathion L^−1, day 12): approximately 0.90
- ratio of chl a to chl b ([2]; 140 mg malathion L^−1, day 0): approximately 0.85
- ratio of chl a to chl b ([2]; 140 mg malathion L^−1, day 12): approximately 0.90
- decrease of chl a/b ratio ([2]; 280 mg malathion L^−1): approximately 100%
- increase in lipid production over the control ([3]; 70 mg malathion L^−1): 70%
- increase in lipid over control ([3]; 70 mg malathion L^−1, day 9): 42%
- increase in lipid production over the control ([3]; 140 mg malathion L^−1): 110%
- increase in lipid over control ([3]; 140 mg malathion L^−1, day 9): 119%
- increase in lipid content over control ([3]; 140 mg malathion L^−1, day 12): 25%
- increase in lipid production over the control ([3]; 280 mg malathion L^−1): 325%
- increase in lipid over control ([3]; 280 mg malathion L^−1, day 9): 212%
- increase in lipid content of the cells with respect to day 3 ([3]; T1, 70 mg malathion L^−1, day 9, control 97%): 193%
- increase in lipid content of the cells with respect to day 3 ([3]; T1, 70 mg malathion L^−1, day 12, control 287%): 406%
- increase in lipid content of the cells with respect to day 3 ([3]; T2, 140 mg malathion L^−1, day 9, control 97%): 150%
- increase in lipid content of the cells with respect to day 3 ([3]; T2, 140 mg malathion L^−1, day 12, control 287%): 574%
- increase in lipid production ([3]; concentrations ranging from 70-280 mg L^−1 in the growth medium): 70-325%
- effect on growth, in words [4]: very little effect on the growth
- concentration that permanently suppressed the growth [5]: 200 mg/L
- inhibition of chlorophyll production [6]: 100%
- resistance to malathion, in words ([7]; 500 mg L^−1): highly resistant
- inhibition ([7]; day 5): 64%
- inhibition ([7]; day 30): 15%
- toxicity to algae, in words [8]: toxic to algae
